Legend:
Type in all cases: cell-based
[1] = system: Human peripheral blood mononuclear cells (PBMC); test: Cytokine induction in human cells (PBMC); details: 21-24 h, lowest concentration giving at least 2x negative control; for MEC to Induce Cytokine: IFN-alpha: ELISA; for MEC to Induce Cytokine: IFN-gamma / MEC to Induce Cytokine: TNF-alpha: multiplex bead assay
Experimental: Whole blood was obtained from healthy human donors and collected by venipuncture into vacutainer tubes or syringes containing EDTA. Human peripheral blood mononuclear cells (PBMC) were purified from the whole blood by density gradient centrifugation. Histopaque 1077 (15 mL, Sigma, St. Louis, MO) was transferred to 6×50 mL sterile polypropylene conical tubes. The Histopaque was overlayed with 15-25 mL of blood diluted 1:2 in Hank's Balanced Salts Solution (HBSS) (Gibco, Life Technologies, Grand Island, NY). The tubes were then centrifuged at 1370 revolutions per minute (rpm) for 30 min at 20° C., with no brake (400×g, GH 3.8A Rotor).
The interface (buffy coat) containing the PBMC was collected and placed in a new sterile 50 mL conical polypropylene centrifuge tube. The PBMC were mixed with an equal volume of HBSS (about 20 mL from the interface and about 20 mL of HBSS), and then centrifuged at 1090 rpm, 10 min, 20° C., with brake (270×g, GH 3.8A Rotor). After completing centrifugation, the cells were resuspended in 2-3 mL ACK Red blood cell lysis buffer (ammonium chloride potassium solution, Gibco, Life Technologies) and incubated for 2-5 min at 20° C. Next, HBSS (40 mL) was added to the cells, and the sample was centrifuged at 270×g for 10 min at 20° C. The supernatant was decanted, and the cell pellet was resuspended in 5 mL AIM V Medium (Gibco, Life Technologies). Cell aggregates and debris were removed by filtering the cell solution through a BD Falcon 70 micron nylon cell strainer (BD Biosciences, San Jose, CA).
The number of viable cells was determined by counting with a Miltenyi FACS instrument (Miltenyi Biotec Inc., San Diego, CA) or by using a hemacytometer. For determining cell viability with a hemacytometer, the cells were diluted 1/10 in 0.4% trypan blue and HBSS (specifically, 50 microliter of trypan blue+40 microliter of HBSS+10 microliter of cell solution were added to a microfuge tube and mixed). Ten microliters of the diluted cells were then applied to the hemacytometer, and the number of viable PBMC were determined by microscopy.
The PBMC sample was then resuspended in 96-well plates at a concentration of 8×10^5 cells/well in 0.1 mL of AIM-V medium. Each compound was solubilized in dimethyl sulfoxide (DMSO) to create a 3 mM stock solution. The stock solution was then further diluted with AIM-V medium to prepare the serial dilutions. The diluted compound (100 microliters) was then transferred to the PBMCs to produce testing sets with final compound concentrations of 30, 10, 3.3, 1.1, 0.37, 0.12, 0.04, 0.01 micromolar. The plates also had both positive and negative controls. The negative control wells contained only AIM-V medium with no example compound. The positive control wells contained a control set of imiquimod serially diluted to concentrations of 30, 10, 3.3, 1.1, 0.37, 0.12, 0.04, 0.01 micromolar. The concentrations used in the control set were selected to match the concentrations used in the testing set. The plates were then cultured at 37° C./5% CO2 for 21-24 h. Cell-free supernatants were harvested by centrifuging the 96-well plates at 2100 rpm, 23° C. for 10 min. Approximately 160 microliters of the supernatant was then stored in a NUNC 96-well plate, covered with the compression cap and stored at −80° C. until the cytokine analysis was done.
IFN-alpha cytokine levels (picograms/mL) were measured by ELISA (human IFN-alpha, pan specific, Mabtech, Cincinnati, OH). IFN-gamma and TNF-alpha levels (picograms/mL) were measured by multiplex bead assay (magnetic beads, R & D Systems, Minneapolis, MN) according to the manufacturer's instructions.
Specifically, the minimum effective concentration of each compound (micromolar) was determined as the lowest concentration of the compound that induced a measured cytokine response at a level ([…]) that was at least 2× greater than that observed with the negative control wells.

human TLR8 = molecular target: T1, human TLR8 (Homo sapiens, UniProt Q9NR97); test: TLR activation, HEK-BLUE-hTLR8 SEAP reporter cells; details: HEK-BLUE-hTLR8, 16-20 h; SEAP response at least 2x vehicle control
T1 construct: host or cells: HEK293 (HEK-BLUE-hTLR8)
T1 sequence (Q9NR97 27-1041): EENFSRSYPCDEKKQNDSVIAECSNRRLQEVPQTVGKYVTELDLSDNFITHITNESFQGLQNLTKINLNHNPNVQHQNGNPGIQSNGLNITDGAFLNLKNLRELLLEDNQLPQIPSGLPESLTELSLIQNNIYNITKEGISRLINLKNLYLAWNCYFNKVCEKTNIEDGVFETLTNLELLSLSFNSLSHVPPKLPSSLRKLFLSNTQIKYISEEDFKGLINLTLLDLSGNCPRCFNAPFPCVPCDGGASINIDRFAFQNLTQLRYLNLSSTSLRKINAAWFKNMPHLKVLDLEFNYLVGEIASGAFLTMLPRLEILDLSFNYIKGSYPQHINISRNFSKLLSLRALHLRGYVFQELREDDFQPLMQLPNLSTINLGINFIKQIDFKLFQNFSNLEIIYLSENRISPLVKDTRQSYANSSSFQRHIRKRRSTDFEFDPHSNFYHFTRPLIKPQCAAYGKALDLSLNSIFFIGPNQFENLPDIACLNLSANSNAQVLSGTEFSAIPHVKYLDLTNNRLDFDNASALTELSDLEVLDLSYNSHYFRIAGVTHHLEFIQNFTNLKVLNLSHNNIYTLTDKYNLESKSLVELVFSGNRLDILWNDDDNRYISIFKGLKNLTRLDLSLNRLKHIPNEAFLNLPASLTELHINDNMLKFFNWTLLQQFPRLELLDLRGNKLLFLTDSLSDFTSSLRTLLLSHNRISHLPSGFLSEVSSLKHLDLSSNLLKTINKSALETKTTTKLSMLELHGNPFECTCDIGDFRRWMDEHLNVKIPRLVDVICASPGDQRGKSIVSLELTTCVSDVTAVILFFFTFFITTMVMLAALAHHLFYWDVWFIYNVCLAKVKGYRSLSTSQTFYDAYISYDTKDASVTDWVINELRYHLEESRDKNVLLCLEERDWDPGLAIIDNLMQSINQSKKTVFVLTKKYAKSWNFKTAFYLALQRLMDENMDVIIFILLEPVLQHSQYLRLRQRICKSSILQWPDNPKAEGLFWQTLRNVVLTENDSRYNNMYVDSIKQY
Experimental: (§1) HEK-BLUE-hTLR7 or hTLR8 reporter cells were obtained from InvivoGen, San Diego, CA. According to the manufacturer's description, these reporter cells were prepared by co-transfection of HEK293 cells with an inducible secreted embryonic alkaline phosphatase (SEAP) reporter gene and either the human TLR7 or TLR8 gene. The SEAP reporter gene was placed under the control of an IFN-β minimal promoter fused to five NF-κB and AP-1-binding sites. In the presence of a TLR ligand, activation of NF-κB and AP-1 occurs, resulting in a corresponding increase in SEAP levels. […]
(§2) For each compound, hTLR7, hTLR8, and their respective null control HEK cells were screened. […] Cell culture supernatants containing the SEAP reporter were collected after an incubation period of 16-20 h in a cell culture incubator (37° C. and 5% CO2), and either analyzed immediately or stored at −80° C. SEAP levels were measured using the colorimetric enzyme assay (QUANTI-BLUE (InvivoGen) according to manufacturer's instructions.
(§3) Specifically, the minimum effective concentration of each compound (micromolar) was determined as the lowest concentration of the compound that produced a SEAP expression response at least 2× greater than that observed with the vehicle control wells.

human TLR7 = molecular target: T2, human TLR7 (Homo sapiens, UniProt Q9NYK1); test: TLR activation, HEK-BLUE-hTLR7 SEAP reporter cells; details: HEK-BLUE-hTLR7, 16-20 h; SEAP response at least 2x vehicle control
T2 construct: host or cells: HEK293 (HEK-BLUE-hTLR7)
T2 sequence (Q9NYK1 27-1049): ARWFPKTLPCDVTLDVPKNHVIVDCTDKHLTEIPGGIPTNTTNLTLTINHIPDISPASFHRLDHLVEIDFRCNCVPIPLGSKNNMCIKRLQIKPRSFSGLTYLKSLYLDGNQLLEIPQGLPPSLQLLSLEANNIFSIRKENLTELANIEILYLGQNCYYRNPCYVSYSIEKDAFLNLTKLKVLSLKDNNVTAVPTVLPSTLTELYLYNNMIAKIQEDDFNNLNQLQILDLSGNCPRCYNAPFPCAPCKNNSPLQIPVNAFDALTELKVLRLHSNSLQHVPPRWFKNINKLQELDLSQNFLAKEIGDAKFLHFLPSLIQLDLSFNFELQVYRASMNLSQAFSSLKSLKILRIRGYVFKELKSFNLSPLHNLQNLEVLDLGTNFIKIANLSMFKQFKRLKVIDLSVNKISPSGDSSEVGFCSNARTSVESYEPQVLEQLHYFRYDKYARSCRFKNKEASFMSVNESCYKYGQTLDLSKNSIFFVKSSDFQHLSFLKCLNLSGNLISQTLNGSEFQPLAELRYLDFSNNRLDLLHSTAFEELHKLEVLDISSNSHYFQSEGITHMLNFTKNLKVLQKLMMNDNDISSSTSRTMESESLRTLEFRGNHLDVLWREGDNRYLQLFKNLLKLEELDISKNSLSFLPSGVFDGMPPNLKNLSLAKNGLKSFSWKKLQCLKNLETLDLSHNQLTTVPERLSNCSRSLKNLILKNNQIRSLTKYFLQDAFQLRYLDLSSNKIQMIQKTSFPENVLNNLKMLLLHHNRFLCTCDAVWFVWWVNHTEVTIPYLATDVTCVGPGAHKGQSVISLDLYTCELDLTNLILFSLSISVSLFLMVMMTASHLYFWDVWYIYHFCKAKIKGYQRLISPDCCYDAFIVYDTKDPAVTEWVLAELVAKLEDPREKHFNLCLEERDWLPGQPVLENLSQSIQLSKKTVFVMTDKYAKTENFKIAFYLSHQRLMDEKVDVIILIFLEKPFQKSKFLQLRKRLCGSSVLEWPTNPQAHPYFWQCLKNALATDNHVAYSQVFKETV
Experimental: as §1, §2, §3

SMILES	MEC to Induce Cytokine: IFN-alpha [1] [µM]	MEC to Induce Cytokine: IFN-gamma [1] [µM]	MEC to Induce Cytokine: TNF-alpha [1] [µM]	MEC to Produce TLR Activation: TLR 8 (human TLR8) [µM]	MEC to Produce TLR Activation: TLR 7 (human TLR7) [µM]
CCOC[C@H](Cc1ccc(OCCO)cc1)n1cnc2c(N)nc3ccccc3c21 [Example 1, (S)-2-(4-(2-(4-amino-1H-imidazo[4,5-c]quinolin-1-yl)-3-ethoxypropyl)phenoxy)ethan-1-ol]	≤0.01	≤0.01	≤0.01	1.1	≤0.01
CCOC[C@H](Cc1ccc(OCCN)cc1)n1cnc2c(N)nc3ccccc3c21 [Example 2, (S)-1-(1-(4-(2-aminoethoxy)phenyl)-3-ethoxypropan-2-yl)-1H-imidazo[4,5-c]quinolin-4-amine]	≤0.01	≤0.01	≤0.01	1.1	≤0.01
